Experimental findings from the supplement of paper PMC8253809 are described below.

Assay [1] concerns HGGX39 (paediatric high-grade glioma line). The experiment in a line: area under dose-response curve of % growth inhibition (log2 RLU vs DMSO / staurosporine), 1e-11 to 1e-4 M (% x log10 M); higher = more growth inhibition. The gist of the method:
(§1)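 Patient-derived pHGG/DIPG cell lines and astrocytes were plated in 384-well plates coated with 1% Geltrex and treated in triplicate with a 10-point threefold dilution series whose mean top concentration was 35 μM, for 7 days (3 days for iAstro) at 37 °C and 5% CO2. CellTiter-Glo luminescence was log2-transformed and scaled on each plate to % activity between solvent and positive controls. Area under the curve came from the trapezoid rule applied to a fitted log-logistic curve, or to a smoothing spline where the sigmoid fit failed.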

The test system of the next assay is SUDIPGVI (diffuse intrinsic pontine glioma line)
Described as above. In a few lines: as §1

Another assay concerns HABS (astrocyte control). The assay is described as above. The gist of the method:
as §1

The test system of the next assay is SUDIPGXIX (diffuse intrinsic pontine glioma line)
The assay is described as above. In a few lines: as §1

The subject of the next assay is DIPGX7 (H3.3 K27M diffuse intrinsic pontine glioma line). The description is as above. The gist of the method: as §1
The subject of assay [2] is iAstro (astrocyte control). Described as above. In a few lines:
as §1

The subject of assay [3] is DIPGX9 (diffuse intrinsic pontine glioma line). The assay is described as above. In a few lines:
as §1

Assay [4] deals with SUDIPGIV (diffuse intrinsic pontine glioma line)
The assay is described as above. In a few lines:
as §1

For another assay, the system named is HGGX42 (H3.3 G34R paediatric high-grade glioma line). The description is as above. In a few lines:
as §1

For assay [5], the system named is DIPGX37 (H3.3 K27M diffuse intrinsic pontine glioma line). Described as above. The gist of the method:
as §1

Assay [6] has as its system HGGX6 (H3.3 G34R paediatric high-grade glioma line). Described as above. In a few lines:
as §1

The test system of the next assay is SUDIPGXIII (diffuse intrinsic pontine glioma line)
The description is as above. In a few lines: as §1

The subject of a further assay is SUDIPGXVII (diffuse intrinsic pontine glioma line)
Described as above. The gist of the method:
as §1

A further assay relates to HGGX2 (paediatric high-grade glioma line). The assay is described as above. The gist of the method: as §1
Assay [7] relates to DIPGX29 (H3.3 K27M diffuse intrinsic pontine glioma line). Described as above. In a few lines:
as §1

For assay [8], the system named is SUDIPGXXI (diffuse intrinsic pontine glioma line)
Described as above. The gist of the method:
as §1

Assay [9] relates to DIPGX29. The experiment in a line: EC50 (inflection of fitted growth-inhibition curve) (log10 M). The gist of the method:
(§2)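 Treatment used a pin tool and a 10-point threefold dilution series, mean top concentration 35 μM, run in triplicate on patient-derived pHGG/DIPG cell lines and astrocyte controls in 1% Geltrex-coated 384-well plates. Plates were kept at 37 °C, 5% CO2 for 7 days (iAstro: 3 days). Log2-transformed CellTiter-Glo luminescence was scaled per plate to % activity between negative (solvent) and positive control wells and pooled before fitting. EC50 and maximal response (yFin) came from the three- or four-parameter log-logistic fit chosen by lowest AICc.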

Assay [10] has as its system SUDIPGXXI
Described as above. In a few lines:
as §2

In assay [11] the test system is DIPGX29. The assay is described as follows: maximal growth inhibition (yFin) relative to DMSO / staurosporine; higher = more efficacious. The gist of the method: as §2
In assay [12] the test system is SUDIPGXXI
The assay is described as above. The gist of the method: as §2

Assay [13] relates to iAstro. The assay is described as follows: EC50 (inflection of fitted growth-inhibition curve) (log10 M). In a few lines:
as §2

The test system of assay [14] is iAstro. The assay is described as follows: maximal growth inhibition (yFin) relative to DMSO / staurosporine; higher = more efficacious. The gist of the method: as §2
Assay [15] has as its system DIPGX9. The experiment in a line: EC50 (inflection of fitted growth-inhibition curve) (log10 M). In a few lines: as §2
For assay [16], the system named is SUDIPGIV
The assay is described as above. The gist of the method: as §2

Assay [17] relates to DIPGX9. The experiment in a line: maximal growth inhibition (yFin) relative to DMSO / staurosporine; higher = more efficacious. In a few lines:
as §2

Assay [18] deals with SUDIPGIV
Described as above. In a few lines:
as §2

The subject of assay [19] is HGGX39. The experiment in a line: EC50 (inflection of fitted growth-inhibition curve) (log10 M). The gist of the method:
as §2

For assay [20], the system named is DIPGX37. Described as above. In a few lines: as §2
For assay [21], the system named is HGGX6. The assay is described as above. The gist of the method:
as §2

Assay [22] concerns HGGX39. The assay is described as follows: maximal growth inhibition (yFin) relative to DMSO / staurosporine; higher = more efficacious. The gist of the method: as §2
Assay [23] relates to DIPGX37. Described as above. In a few lines: as §2
The test system of assay [24] is HGGX6. Described as above. The gist of the method: as §2

With `O=C([C@@H](Cc1cccc(C(F)(F)F)c1)NS(=O)(=O)c1cc(F)c2c(c1)CCNC2)N1CCCC1` [PFI-2], the “area under dose-response curve” value with HGGX39 [1] was found to be 4.9; in the assay on SUDIPGVI, 8.26; in the assay with HABS, 5.29; in the assay on SUDIPGXIX, 0; with DIPGX7, 4.47; in the assay on iAstro [2] it was 6.82. The “area under dose-response curve” value in the assay with DIPGX9 [3] amounted to 0; in the assay on SUDIPGIV [4], 4.77; with HGGX42 it was 0; with DIPGX37 [5] it was 0.851; in the assay with HGGX6 [6], 5.68; in the assay with SUDIPGXIII it was 1.68. The “area under dose-response curve” value with SUDIPGXVII was determined as 3.09; in the assay with HGGX2, 6.57; with DIPGX29 [7] it was 14; in the assay on SUDIPGXXI [8], 14.4. Moreover, the results for the “EC50 (log10 M)” value in the assay with DIPGX29 [9] and with SUDIPGXXI [10] were -4.51 and -4.58, respectively. Also, the maximal growth inhibition came to 27.5% in the assay on DIPGX29 [11] and 24.8% in the assay with SUDIPGXXI [12].

Turning to `CCOC(=O)c1ccc(C#Cc2ccc3c(c2)C(C)(C)CCS3)nc1` [TAZAROTENE], the “area under dose-response curve” value stood at 27.7 in the assay with HGGX39 [1]; 0 in the assay with SUDIPGVI; 0 in the assay on HABS; 0 in the assay on SUDIPGXIX; 5.61 in the assay with DIPGX7; 17 with iAstro [2]. For the same compound, the “area under dose-response curve” value in the assay with DIPGX9 [3] came out at 25.9; with SUDIPGIV [4], 45.5; in the assay on HGGX42 it was 11.6; in the assay on DIPGX37 [5], 19.5; in the assay on HGGX6 [6], 15.5; with SUDIPGXIII it was 14.7. The “area under dose-response curve” value was determined as 12.6 with SUDIPGXVII, 12.3 with HGGX2, 10.3 in the assay with DIPGX29 [7] and 230 in the assay on SUDIPGXXI [8]. For the same compound, the “EC50 (log10 M)” value was -4.78 in the assay on iAstro [13] and -5.98 in the assay with SUDIPGXXI [10]. Further, the figures for the maximal growth inhibition in the assay with iAstro [14] and with SUDIPGXXI [12] were 21.6% and 107%, respectively.

On to `O=C(CCCCCCC(=O)Nc1ccc([C@H]2O[C@@H](CSc3nc(-c4ccccc4)c(-c4ccccc4)o3)C[C@@H](c3ccc(CO)cc3)O2)cc1)NO` [TUBACIN], for which the “area under dose-response curve” value was determined as 4.96 in the assay on HGGX39 [1]; 1.17 in the assay with SUDIPGVI; 4.17 in the assay with HABS; 8.78 in the assay on SUDIPGXIX; 22.1 in the assay with DIPGX7; 17 in the assay with iAstro [2]. The “area under dose-response curve” value with DIPGX9 [3] amounted to 5.5; in the assay with SUDIPGIV [4] it was 0.838; in the assay with HGGX42, 0; in the assay with DIPGX37 [5] it was 3.94; in the assay on HGGX6 [6] it was 0; with SUDIPGXIII, 0. Further, the “area under dose-response curve” value is 1.78 in the assay with SUDIPGXVII, 3.24 in the assay on HGGX2, 8.41 in the assay on DIPGX29 [7] and 43.2 in the assay with SUDIPGXXI [8]. Moreover, the results for the “EC50 (log10 M)” value in the assay with iAstro [13] and in the assay with SUDIPGXXI [10] were -4.6 and -4.84, respectively. For the same compound, the maximal growth inhibition with iAstro [14] worked out at 29.5%; with SUDIPGXXI [12] it was 51.8%.

As to `CN1CCc2c(c3ccccc3n2Cc2ccc(C(=O)NO)cc2)C1` [TUBASTATIN A], the “area under dose-response curve” value in the assay on HGGX39 [1] was determined as 24.6; with SUDIPGVI, 0; with HABS, 14.5; with SUDIPGXIX it was 24.1; in the assay with DIPGX7, 5.69; with iAstro [2] it was 37.8. The “area under dose-response curve” value in the assay on DIPGX9 [3] was found to be 32.9; in the assay with SUDIPGIV [4], 24.1; in the assay with HGGX42 it was 9.08; in the assay on DIPGX37 [5], 24.4; in the assay on HGGX6 [6], 6.92; in the assay on SUDIPGXIII it was 6.63. In addition, the “area under dose-response curve” value with SUDIPGXVII was found to be 17.2; in the assay with HGGX2, 21.2; in the assay on DIPGX29 [7], 16.3; in the assay on SUDIPGXXI [8], 82.4. For the same compound, the “EC50 (log10 M)” value was -4.7 with iAstro [13], -4.76 with DIPGX9 [15], -4.8 in the assay on SUDIPGIV [16] and -4.83 in the assay with SUDIPGXXI [10]. Besides, the maximal growth inhibition in the assay on iAstro [14] came to 54%; with DIPGX9 [17], 29.3%; with SUDIPGIV [18] it was 30.1%; with SUDIPGXXI [12] it was 99.5%.

For the compound `C[C@]1(c2nc3c(C(N)=O)cccc3[nH]2)CCCN1` [VELIPARIB], the “area under dose-response curve” value came out at 0 in the assay with HGGX39 [1]; 0 with SUDIPGVI; 3.94 in the assay on HABS; 7.71 in the assay on SUDIPGXIX; 1.28 in the assay with DIPGX7; 7.64 with iAstro [2]. Besides, the “area under dose-response curve” value with DIPGX9 [3] was determined as 6.96; in the assay on SUDIPGIV [4] it was 6.66; with HGGX42, 0; in the assay on DIPGX37 [5], 0; in the assay on HGGX6 [6] it was 0; in the assay on SUDIPGXIII, 0. In addition, the “area under dose-response curve” value in the assay on SUDIPGXVII was determined as 9.93; in the assay with HGGX2, 1.41; in the assay with DIPGX29 [7] it was 0; in the assay on SUDIPGXXI [8], 100. Besides, the “EC50 (log10 M)” value in the assay with SUDIPGXXI [10] is -4.72. In the assay with SUDIPGXXI [12], the maximal growth inhibition was 99.9%.

Regarding `CS(=O)(=O)c1ccc(C(=O)Nc2ccc(Cl)c(-c3ccccn3)c2)c(Cl)c1` [VISMODEGIB], the “area under dose-response curve” value in the assay with HGGX39 [1] came out at 11.1; in the assay with SUDIPGVI it was 0; with HABS, 0; in the assay with SUDIPGXIX, 0; in the assay on DIPGX7 it was 5.14; in the assay with iAstro [2], 25.8. Besides, the “area under dose-response curve” value was 2.06 in the assay on DIPGX9 [3]; 6.55 in the assay with SUDIPGIV [4]; 0.511 in the assay on HGGX42; 7.51 in the assay with DIPGX37 [5]; 11.3 in the assay with HGGX6 [6]; 2.44 in the assay on SUDIPGXIII. Moreover, the “area under dose-response curve” value amounted to 7.7 with SUDIPGXVII, 1.06 with HGGX2, 6.39 in the assay on DIPGX29 [7] and 28.8 in the assay on SUDIPGXXI [8]. The “EC50 (log10 M)” value with SUDIPGXXI [10] was -4.83. For the same compound, the maximal growth inhibition in the assay on SUDIPGXXI [12] turned out to be 34.8%.

For `O=C(CCCCCCC(=O)Nc1ccccc1)NO` [VORINOSTAT], the “area under dose-response curve” value with HGGX39 [1] is 60.1; in the assay with DIPGX37 [5], 58.2; with HGGX6 [6], 83.9; in the assay with DIPGX29 [7], 77.5. In addition, the “EC50 (log10 M)” value in the assay on HGGX39 [19] is -4.71; in the assay on DIPGX37 [20], -4.65; in the assay on HGGX6 [21] it was -4.68; with DIPGX29 [9], -4.98. The maximal growth inhibition in the assay with HGGX39 [22] was 64.3%; in the assay on DIPGX37 [23], 68%; with HGGX6 [24], 76.9%; in the assay on DIPGX29 [11], 74.2%.

Consider `O=c1ncccn1[C@@H]1O[C@H](CO)[C@@H](O)[C@H]1O` [ZEBULARINE], for which the “area under dose-response curve” value with HGGX39 [1] is 2.92; in the assay on SUDIPGVI it was 13.2; in the assay with HABS, 4.92; in the assay with SUDIPGXIX it was 5.55; in the assay with DIPGX7, 17.7; with iAstro [2], 6.4. Moreover, the “area under dose-response curve” value with DIPGX9 [3] was found to be 11.6; in the assay with SUDIPGIV [4], 12; with HGGX42 it was 15.7; in the assay on DIPGX37 [5] it was 19.9; in the assay with HGGX6 [6] it was 2.58; in the assay with SUDIPGXIII, 32.2. Further, the “area under dose-response curve” value in the assay on SUDIPGXVII turned out to be 7.86; in the assay on HGGX2 it was 20; in the assay with DIPGX29 [7] it was 5.5; in the assay on SUDIPGXXI [8], 15.3.
